Laboratory results as given in patent US8101777B2, “Ionic liquids based on imidazolium salts incorporating a nitrile functionality” (Ecole Polytechnique Federale de Lausanne, priority 2003, dated 2012).

Experiments:
[1] = Density determined with a picometer; type: physicochemical; conditions: room temperature (20±1° C.), 1.0 ml of sample, average of three
Method: (§1) The 1-methylimidazole and 1,2-dimethylimidazole and chloronitriles are purchased from Fluka, HPF6 and NaBF4 are purchased from Aldrich and are used as received without further purification. The synthesis of the imidazolium salts 1a-5a is performed under an inert atmosphere of dry nitrogen using standard Schlenk techniques in solvents dried using the appropriate reagents and distilled prior to use. All other compounds are made without precautions to exclude air or moisture. IR spectra are recorded on a Perkin-Elmer FT-IR 2000 system. […] Electrospray ionization mass spectra (ESI-MS) are recorded on a ThermoFinnigan LCQ™ Deca XP Plus quadrupole ion trap instrument on sample diluted in methanol.^19 Samples are infused directly into the source at 5 μL min^−1 using a syringe pump and the spray voltage is set at 5 kV and the capillary temperature at 50° C. Samples 2c, 3c, 4a, 4b and 4c are purified by filtration through silica and left under vacuum (ca. 0.1 mm Hg) at 40-50° C. in order to remove traces of salt impurities and volatile components. […] Density is determined with a picometer at room temperature (20±1° C.) on 1.0 ml of sample. The measurements are repeated three times and average values are used. Viscosities are measured with a Brookfield DV-II+ viscometer on 0.50 ml of sample. The temperature of the samples is maintained to 25±1° C. by means of an external temperature controller. The measurements are performed in duplicate.

[2] = Viscosity, Brookfield DV-II+ viscometer; type: physicochemical
Method: as §1, with “The temperature of the samples is maintained to 25±1° C. by means of an external temperature controller.” left out

[3] = Solubility in common solvents
[4] = Stability of the nitrile-functionalised anion towards catalytic hydrogenation; type: physicochemical; conditions: 8 mg with RuCl2(PMe3)4 (1 mg) in acetone, H2 40 bar, 35° C., 48 hours
Method: The stability of the nitrile-functionalised anion towards catalytic hydrogenation is tested by pressurising a solution of K[CH3CH(BF3)CH2CN] (8 mg) and RuCl2(PMe3)4 (1 mg) in acetone (0.4 ml) with H2 (40 bar) at 35° C.

[5] = 25±1° C., 0.50 ml of sample, duplicate

Compound	Density [1] [g/mL]	Viscosity [2, 5] [mpa · s]	Solubility in common solvents: Acetone [3]	Solubility in common solvents: Et2O [3]	Solubility in common solvents: EtOH [3]	Solubility in common solvents: H2O [3]	Solubility in common solvents: Hexane [3]	Reduction of the nitrile-functionalised anion under catalytic hydrogenation [4]	Viscosity ([2]; 20° C.) [cp]
[1-ethyinitrile-3-methylimidazolium]BF4 [[C2CNmim][BF4]]	2.15	65.5	miscible	immiscible	miscible	miscible	immiscible		
CC(CC#N)[B-](F)(F)F.[K+] (stereo not drawn) [K[CH3CH(BF3)CH2CN]]								No reduction was observed	
[1-ethylnitrile-3-methylimidazolium]Cl [[C2CNmim][Cl]]	2.67	2856	immiscible	immiscible	miscible	miscible	immiscible		
[1-butylnitrile-3-methylimidazolium]BF4 [[C4CNmim][BF4]]	1.71	552.9	miscible	immiscible	immiscible	miscible	immiscible		
C=CC[n+]1ccn(C)c1.F[B-](F)(F)F [[CC═Cmim][BF4], 1-methyl-3-allylimidazolium tetrafluoroborate, reference compound]									6110
[1-butylnitrile-3-methylimidazolium]PF6 [[C4CNmim][PF6]]	1.99	2181	miscible	immiscible	immiscible	partly	immiscible		
CCCCn1cc[n+](C)c1.F[B-](F)(F)F [[C4mim][BF4], 1-methyl-3-butylimidazolium tetrafluoroborate, reference compound]	1.14	115.2	miscible	immiscible	immiscible	miscible			115.2
[1-propylnitrile-3-methylimidazolium]BF4 [[C3CNmim][BF4]]	1.87	230	miscible	immiscible	immiscible	miscible	immiscible		230.0
[1-butylnitrile-3-methylimidazolium]Cl [[C4CNmim][Cl]]	1.61	5222	immiscible	immiscible	miscible	miscible	immiscible		
Cn1cc[n+](CCCC(=O)O)c1.F[B-](F)(F)F [[C3COOHmim][BF4], 1-methyl-3-proylcarboxylimidazolium tetrafluoroborate, reference compound]									4415
CCCCn1cc[n+](C)c1.F[P-](F)(F)(F)(F)F [[C4mim][PF6], reference compound]	1.37	320.3	miscible	immiscible	partly	partly	immiscible		
